Measured values reported in patent publication US10947252B2, “Inhibitors of KEAP1-Nrf2 protein-protein interaction” (Janssen Pharmaceutica NV, priority 2018, dated 2021).

How the values were obtained:
[1] = target: Kelch domain of human KEAP1 (321-624 aa) (Homo sapiens (Human), UniProt Q14145); assay: KEAP1 KELCH ThermoFluor binding assay; details: KEAP Kelch […], 1,8-ANS, pH 7.0, average of results obtained, read-out: Tf Kd;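 also: Ligand-induced melting temperature shift of E. coli-expressed KEAP1 Kelch protein, Kd estimated from concentration-response curves of ΔTm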
[2] = test system: Glo-Response ARE-luc2P HEK293 cell line; assay: ARE luciferase reporter cell-based assay; details: average of results obtained;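 also: luciferase signal tracks Nrf2 activation of the ARE once compounds disrupt KEAP1-Nrf2 binding, read with One-Glo reagent, DMSO serving as low control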

Kelch domain of human KEAP1 (321-624 aa), sequence (Q14145 321-624): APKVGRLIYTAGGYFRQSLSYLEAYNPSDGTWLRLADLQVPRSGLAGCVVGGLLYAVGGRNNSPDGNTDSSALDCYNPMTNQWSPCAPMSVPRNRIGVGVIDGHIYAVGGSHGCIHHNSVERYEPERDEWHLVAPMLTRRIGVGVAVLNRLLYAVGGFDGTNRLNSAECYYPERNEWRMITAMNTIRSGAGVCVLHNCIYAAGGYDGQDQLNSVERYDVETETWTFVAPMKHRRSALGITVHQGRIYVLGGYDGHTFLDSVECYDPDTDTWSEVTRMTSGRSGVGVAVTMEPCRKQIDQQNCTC

| Compound | Kd [1] | EC50 ([2]; Homo sapiens, HEK293, 24 h) | EC50 ([2]; 24 hours) |
| --- | --- | --- | --- |
| Cc1ccc([C@@H](CC(=O)O)c2ccn3c(C)nnc3c2)cc1CN1C[C@H]2CCCN2c2ncccc2S1(=O)=O (single isomer, unassigned) [Example 164, (*R)-3-(3-(((R)-5,5-Dioxido-7a,8,9,10-tetrahydropyrido[2,3-f]pyrrolo[2,1-d][1,2,5]thiadiazepin-6(7H)-yl)methyl)-4-methylphenyl)-3-(3-methyl-[1,2,4]triazolo[4,3-a]pyridin-7-yl)propanoic Acid] | 2.3 nM | 11200 nM | – |
| Cc1ccc([C@H](CC(=O)O)c2ccn3c(C)nnc3c2)cc1CN1C[C@H]2CCCN2c2ccccc2S1(=O)=O (single isomer, unassigned) [Example 165, (*S)-3-(3-(((R)-5,5-Dioxido-7a,8,9,10-tetrahydrobenzo[f]pyrrolo[2,1-d][1,2,5]thiadiazepin-6(7H)-yl)methyl)-4-methylphenyl)-3-(3-methyl-[1,2,4]triazolo[4,3-a]pyridin-7-yl)propanoic Acid] | < 1 nM | 1490 nM | – |
| Cc1ccc([C@@H](CC(=O)O)c2ccn3c(C)nnc3c2)cc1CN1C[C@H]2CCCN2c2ccccc2S1(=O)=O (single isomer, unassigned) [Example 166, (*R)-3-(3-(((R)-5,5-Dioxido-7a,8,9,10-tetrahydrobenzo[f]pyrrolo[2,1-d][1,2,5]thiadiazepin-6(7H)-yl)methyl)-4-methylphenyl)-3-(3-methyl-[1,2,4]triazolo[4,3-a]pyridin-7-yl)propanoic Acid] | < 1 nM | 7020 nM | – |
| Cc1ccc([C@H](CC(=O)O)c2ccn3c(C4CC4)nnc3c2C)cc1CN1C[C@H]2CCCN2c2ncccc2S1(=O)=O (single isomer, unassigned) [Example 168, (*S)-3-(3-Cyclopropyl-8-methyl-[1,2,4]triazolo[4,3-a]pyridin-7-yl)-3-(3-(((R)-5,5-dioxido-7a,8,9,10-tetrahydropyrido[2,3-f]pyrrolo[2,1-d][1,2,5]thiadiazepin-6(7H)-yl)methyl)-4-methylphenyl)propanoic Acid] | < 1 nM | 480 nM | – |
| Cc1ccc([C@@H](CC(=O)O)c2ccn3c(C4CC4)nnc3c2C)cc1CN1C[C@H]2CCCN2c2ncccc2S1(=O)=O (single isomer, unassigned) [Example 169, (*R)-3-(3-Cyclopropyl-8-methyl-[1,2,4]triazolo[4,3-a]pyridin-7-yl)-3-(3-(((R)-5,5-dioxido-7a,8,9,10-tetrahydropyrido[2,3-f]pyrrolo[2,1-d][1,2,5]thiadiazepin-6(7H)-yl)methyl)-4-methylphenyl)propanoic Acid] | 1.2 nM | 5910 nM | – |
| Cc1ccc([C@H](CC(=O)O)c2ccc3c(nnn3CC3CC3)c2C(F)F)cc1CN1C[C@H]2CCCCN2c2ncccc2S1(=O)=O (single isomer, unassigned) [Example 170, (*S)-3-(1-(Cyclopropylmethyl)-4-(difluoromethyl)-1H-benzo[d][1,2,3]triazol-5-yl)-3-(3-(((*R)-5,5-dioxido-7,7a,8,9,10,11-hexahydro-6H-dipyrido[2,1-d:2′,3′-f][1,2,5]thiadiazepin-6-yl)methyl)-4-methylphenyl)propanoic Acid] | < 1 nM | 110 nM | – |
| Cc1ccc([C@@H](CC(=O)O)c2ccc3c(nnn3CC3CC3)c2C(F)F)cc1CN1C[C@H]2CCCCN2c2ncccc2S1(=O)=O (single isomer, unassigned) [Example 171, (*R)-3-(1-(Cyclopropylmethyl)-4-(difluoromethyl)-1H-benzo[d][1,2,3]triazol-5-yl)-3-(3-(((*R)-5,5-dioxido-7,7a,8,9,10,11-hexahydro-6H-dipyrido[2,1-d:2′,3′-f][1,2,5]thiadiazepin-6-yl)methyl)-4-methylphenyl)propanoic Acid] | < 1 nM | – | 88 nM |
| Cc1ccc([C@H](CC(=O)O)c2ccc3c(nnn3CC3CC3)c2C(F)F)cc1CN1C[C@@H]2CCCCN2c2ncccc2S1(=O)=O (single isomer, unassigned) [Example 172, (*S)-3-(1-(Cyclopropylmethyl)-4-(difluoromethyl)-1H-benzo[d][1,2,3]triazol-5-yl)-3-(3-(((*S)-5,5-dioxido-7,7a,8,9,10,11-hexahydro-6H-dipyrido[2,1-d:2′,3′-f][1,2,5]thiadiazepin-6-yl)methyl)-4-methylphenyl)propanoic Acid] | < 1 nM | 19 nM | – |
| Cc1ccc([C@@H](CC(=O)O)c2ccc3c(nnn3CC3CC3)c2C(F)F)cc1CN1C[C@H]2CCCCN2c2ncccc2S1(=O)=O (single isomer, unassigned) [Example 173, (*R)-3-(1-(Cyclopropylmethyl)-4-(difluoromethyl)-1H-benzo[d][1,2,3]triazol-5-yl)-3-(3-(((R)-5,5-dioxido-7,7a,8,9,10,11-hexahydro-6H-dipyrido[2,1-d:2′,3′-f][1,2,5]thiadiazepin-6-yl)methyl)-4-methylphenyl)propanoic Acid] | 4 nM | – | 540 nM |
| CC[C@@H]1CN(Cc2nc([C@@H](CC(=O)O)c3ccc4c(nnn4C4CC4)c3C)ccc2C)S(=O)(=O)c2cccnc2O1 (single isomer, unassigned) [Example 175, (*S)-3-(1-Cyclopropyl-4-methyl-1H-benzo[d][1,2,3]triazol-5-yl)-3-(6-(((R)-4-ethyl-1,1-dioxido-3,4-dihydro-2H-pyrido[2,3-b][1,4,5]oxathiazepin-2-yl)methyl)-5-methylpyridin-2-yl)propanoic Acid] | < 1 nM | 5.3 nM | – |
| CC[C@@H]1CN(Cc2nc([C@H](CC(=O)O)c3ccc4c(nnn4C4CC4)c3C)ccc2C)S(=O)(=O)c2cccnc2O1 (single isomer, unassigned) [Example 176, (*R)-3-(1-Cyclopropyl-4-methyl-1H-benzo[d][1,2,3]triazol-5-yl)-3-(6-(((R)-4-ethyl-1,1-dioxido-3,4-dihydro-2H-pyrido[2,3-b][1,4,5]oxathiazepin-2-yl)methyl)-5-methylpyridin-2-yl)propanoic Acid] | < 1 nM | 31 nM | – |
| Cc1ccc([C@H](CC(=O)O)c2ccn3c(C(F)(F)F)nnc3c2C)cc1CN1C[C@@H]2CN(C)CCN2c2ncccc2S1(=O)=O (single isomer, unassigned) [Example 178, (*S)-3-(4-Methyl-3-(((S)-9-methyl-5,5-dioxido-7,7a,8,9,10,11-hexahydro-6H-pyrazino[2,1-d]pyrido[2,3-f][1,2,5]thiadiazepin-6-yl)methyl)phenyl)-3-(8-methyl-3-(trifluoromethyl)-[1,2,4]triazolo[4,3-a]pyridin-7-yl)propanoic Acid] | 30 nM | 440 nM | – |
| Cc1ccc([C@@H](CC(=O)O)c2ccn3c(C(F)(F)F)nnc3c2C)cc1CN1C[C@@H]2CN(C)CCN2c2ncccc2S1(=O)=O (single isomer, unassigned) [Example 179, (*R)-3-(4-Methyl-3-(((*S)-9-methyl-5,5-dioxido-7,7a,8,9,10,11-hexahydro-6H-pyrazino[2,1-d]pyrido[2,3-f][1,2,5]thiadiazepin-6-yl)methyl)phenyl)-3-(8-methyl-3-(trifluoromethyl)-[1,2,4]triazolo[4,3-a]pyridin-7-yl)propanoic Acid] | 58 nM | 2040 nM | – |
| Cc1ccc([C@H](CC(=O)O)c2ccn3c(C(F)(F)F)nnc3c2C)cc1CN1C[C@H]2CN(C)CCN2c2ncccc2S1(=O)=O (single isomer, unassigned) [Example 181, (*S)-3-(4-Methyl-3-(((*R)-9-methyl-5,5-dioxido-7,7a,8,9,10,11-hexahydro-6H-pyrazino[2,1-d]pyrido[2,3-f][1,2,5]thiadiazepin-6-yl)methyl)phenyl)-3-(8-methyl-3-(trifluoromethyl)-[1,2,4]triazolo[4,3-a]pyridin-7-yl)propanoic Acid] | 110 nM | 1110 nM | – |
| Cc1ccc([C@@H](CC(=O)O)c2ccn3c(C(F)(F)F)nnc3c2C)cc1CN1C[C@H]2CN(C)CCN2c2ncccc2S1(=O)=O (single isomer, unassigned) [Example 182, (*R)-3-(4-Methyl-3-(((*R)-9-methyl-5,5-dioxido-7,7a,8,9,10,11-hexahydro-6H-pyrazino[2,1-d]pyrido[2,3-f][1,2,5]thiadiazepin-6-yl)methyl)phenyl)-3-(8-methyl-3-(trifluoromethyl)-[1,2,4]triazolo[4,3-a]pyridin-7-yl)propanoic Acid] | 180 nM | 1390 nM | – |
| Cc1ccc([C@H](CC(=O)O)c2ccn3c(C(F)(F)F)nnc3c2C)cc1CN1CC2(CC2)N(C)c2ncccc2S1(=O)=O (single isomer, unassigned) [Example 184, (*S)-3-(4-Methyl-3-((5′-methyl-1′,1′-dioxido-5′H-spiro[cyclopropane-1,4′-pyrido[2,3-f][1,2,5]thiadiazepin]-2′(3′H)-yl)methyl)phenyl)-3-(8-methyl-3-(t*rifluoromethyl)-[1,2,4]triazolo[4,3-a]pyridin-7-yl)propanoic Acid] | 1.4 nM | 130 nM | – |
| Cc1ccc([C@@H](CC(=O)O)c2ccn3c(C(F)(F)F)nnc3c2C)cc1CN1CC2(CC2)N(C)c2ncccc2S1(=O)=O (single isomer, unassigned) [Example 185, (*R)-3-(4-Methyl-3-((5′-methyl-1′,1′-dioxido-5′H-spiro[cyclopropane-1,4′-pyrido[2,3-f][1,2,5]thiadiazepin]-2′(3′H)-yl)methyl)phenyl)-3-(8-methyl-3-(trifluoromethyl)-[1,2,4]triazolo[4,3-a]pyridin-7-yl)propanoic Acid] | 12 nM | 2720 nM | – |
| Cc1ccc([C@@H](CC(=O)O)c2ccn3c(C(F)(F)F)nnc3c2C)cc1CN1C[C@]2(C)CCCN2c2ncccc2S1(=O)=O (single isomer, unassigned) [Example 187, (*R)-3-(4-Methyl-3-(((*S)-7a-methyl-5,5-dioxido-7a,8,9,10-tetrahydropyrido[2,3-f]pyrrolo[2,1-d][1,2,5]thiadiazepin-6(7H)-yl)methyl)phenyl)-3-(8-methyl-3-(trifluoromethyl)-[1,2,4]triazolo[4,3-a]pyridin-7-yl)propanoic Acid] | < 1 nM | 550 nM | – |
